One series deals with CYP2D6 (Homo sapiens, UniProt P10635). Briefly: Inhibition of CYP2D6 (unknown origin) at 10 uM relative to control. In kind it is ADME.
Series [1] is described as follows: Intrinsic clearance in mouse at 1 mg/kg, iv. Conditions: in vivo. Format: ADME, organism-based.
Series [2] can be described thus: Metabolic stability in mouse liver microsomes assessed as compound remaining at 0.5 mg/mL incubated for 0.5 hrs. Format: ADME, Microsome. Conditions: read-out: Stabilty. For orientation: Liver microsomes are vesicles of endoplasmic reticulum, rich in cytochrome P450 enzymes.
Series [3] concerns the target T1, Histone-lysine N-methyltransferase EHMT2 (Homo sapiens, UniProt Q96KQ7).
T1 sequence (Q96KQ7 whole entry): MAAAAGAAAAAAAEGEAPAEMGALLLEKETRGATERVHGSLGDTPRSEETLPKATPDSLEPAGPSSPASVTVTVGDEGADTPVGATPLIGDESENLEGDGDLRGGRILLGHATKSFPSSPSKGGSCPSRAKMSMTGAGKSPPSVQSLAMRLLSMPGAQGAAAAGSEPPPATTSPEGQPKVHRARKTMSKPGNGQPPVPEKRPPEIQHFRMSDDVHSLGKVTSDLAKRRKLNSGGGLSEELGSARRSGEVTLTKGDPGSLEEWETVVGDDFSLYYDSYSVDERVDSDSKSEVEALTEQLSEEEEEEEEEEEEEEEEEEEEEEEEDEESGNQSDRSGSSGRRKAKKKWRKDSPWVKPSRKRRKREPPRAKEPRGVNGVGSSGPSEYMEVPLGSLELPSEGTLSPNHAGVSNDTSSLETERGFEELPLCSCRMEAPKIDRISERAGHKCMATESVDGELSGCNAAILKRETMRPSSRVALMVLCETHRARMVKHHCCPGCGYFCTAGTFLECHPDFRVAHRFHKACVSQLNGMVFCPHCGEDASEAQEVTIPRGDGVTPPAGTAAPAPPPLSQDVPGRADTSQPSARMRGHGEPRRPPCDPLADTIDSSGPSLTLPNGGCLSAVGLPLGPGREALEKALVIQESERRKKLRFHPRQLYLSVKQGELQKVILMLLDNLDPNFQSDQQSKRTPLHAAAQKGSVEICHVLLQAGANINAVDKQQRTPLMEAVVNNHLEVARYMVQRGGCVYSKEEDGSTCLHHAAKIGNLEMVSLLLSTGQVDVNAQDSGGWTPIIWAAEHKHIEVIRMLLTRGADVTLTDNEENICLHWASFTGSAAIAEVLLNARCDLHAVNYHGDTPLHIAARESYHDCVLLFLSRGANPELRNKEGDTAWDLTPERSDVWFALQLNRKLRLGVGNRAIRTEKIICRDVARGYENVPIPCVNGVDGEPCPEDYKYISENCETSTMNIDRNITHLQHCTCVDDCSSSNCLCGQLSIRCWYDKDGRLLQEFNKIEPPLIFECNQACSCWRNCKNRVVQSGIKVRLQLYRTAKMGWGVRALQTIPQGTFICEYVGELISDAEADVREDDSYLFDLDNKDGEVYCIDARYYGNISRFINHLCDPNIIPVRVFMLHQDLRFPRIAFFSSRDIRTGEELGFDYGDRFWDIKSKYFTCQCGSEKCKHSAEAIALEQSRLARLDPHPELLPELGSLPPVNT
Nature of the series: Inhibition G9a (unknown origin).

Series [4] relates to CD34-positive (myeloid/lymphoid) cell. Briefly: Induction of fetal globin in human CD34+ cells assessed as switching of mRAN expression from adult beta-globin to fetal type gamma globin at 0.3 to 1 uM by qRT-PCR analysis. In kind it is functional, cell-based. In general terms: Real-time PCR tracks product formation cycle by cycle.
The next series deals with T2, CYP1A2 (Homo sapiens, UniProt P05177).
T2 sequence (P05177 whole entry): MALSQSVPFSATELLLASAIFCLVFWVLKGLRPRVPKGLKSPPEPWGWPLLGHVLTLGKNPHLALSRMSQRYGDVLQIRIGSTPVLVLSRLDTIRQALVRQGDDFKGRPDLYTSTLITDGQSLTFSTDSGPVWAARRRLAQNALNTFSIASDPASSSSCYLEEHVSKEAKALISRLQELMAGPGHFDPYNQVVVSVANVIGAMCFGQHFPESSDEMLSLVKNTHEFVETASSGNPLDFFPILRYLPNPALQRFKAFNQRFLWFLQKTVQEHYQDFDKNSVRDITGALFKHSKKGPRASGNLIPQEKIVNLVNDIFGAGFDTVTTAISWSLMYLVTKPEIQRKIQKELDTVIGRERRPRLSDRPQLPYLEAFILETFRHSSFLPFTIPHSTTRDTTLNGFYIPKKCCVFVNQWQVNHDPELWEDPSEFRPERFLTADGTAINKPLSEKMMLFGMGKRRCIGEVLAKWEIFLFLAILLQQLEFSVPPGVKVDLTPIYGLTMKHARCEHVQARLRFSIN
Briefly: Inhibition of CYP1A2 (unknown origin) at 10 uM relative to control. Format: ADME.

A short description of series [5]: Cmax in mouse at 10 mg/kg, po. Conditions: in vivo. In kind it is ADME, organism-based. Set-up: route oral, dose 10 mg/kg.
A short description of series [6]: AUC (0 to infinity) in mouse at 1 mg/kg, iv. Set-up: time infinity, route intravenous, dose 1 mg/kg. The note with it: in vivo. In kind it is ADME, organism-based.
Series [7] can be described thus: Metabolic stability in monkey liver microsomes assessed as compound remaining at 0.5 mg/mL incubated for 0.5 hrs. Format: ADME, Macaca mulatta, Microsome. The note with it: rhesus monkey, read-out: Stabilty.
The next series addresses CYP2C19 (Homo sapiens, UniProt P33261). Briefly: Inhibition of CYP2C19 (unknown origin) at 10 uM relative to control. In kind it is ADME.

From ChEMBL document CHEMBL4725338, “Discovery of novel histone lysine methyltransferase G9a/GLP (EHMT2/1) inhibitors: Design, synthesis, and structure-activity relationships of 2,4-diamino-6-methylpyrimidines” (Bioorg Med Chem Lett, 2020) come the findings set out here.

Molecules are shown by their SMILES. pIC50: −log10 of the molar value. The source made the active and inactive calls. The calls are words filed in the database; no cut-off is given here.

CYP2D6, sequence (P10635 whole entry): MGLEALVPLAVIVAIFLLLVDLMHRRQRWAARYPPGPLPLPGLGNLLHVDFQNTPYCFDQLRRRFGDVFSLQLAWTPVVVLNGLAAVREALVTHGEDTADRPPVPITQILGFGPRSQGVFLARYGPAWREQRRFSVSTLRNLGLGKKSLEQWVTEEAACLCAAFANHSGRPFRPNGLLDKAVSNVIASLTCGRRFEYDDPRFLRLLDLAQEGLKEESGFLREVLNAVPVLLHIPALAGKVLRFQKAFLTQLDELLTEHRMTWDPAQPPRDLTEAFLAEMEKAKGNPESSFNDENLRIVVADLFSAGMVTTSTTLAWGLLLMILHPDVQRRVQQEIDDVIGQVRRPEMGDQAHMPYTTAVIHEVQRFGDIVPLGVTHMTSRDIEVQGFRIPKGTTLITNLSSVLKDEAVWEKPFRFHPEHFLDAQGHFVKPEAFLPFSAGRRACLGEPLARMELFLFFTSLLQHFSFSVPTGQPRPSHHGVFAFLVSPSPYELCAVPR
CYP2C19, sequence (P33261 whole entry): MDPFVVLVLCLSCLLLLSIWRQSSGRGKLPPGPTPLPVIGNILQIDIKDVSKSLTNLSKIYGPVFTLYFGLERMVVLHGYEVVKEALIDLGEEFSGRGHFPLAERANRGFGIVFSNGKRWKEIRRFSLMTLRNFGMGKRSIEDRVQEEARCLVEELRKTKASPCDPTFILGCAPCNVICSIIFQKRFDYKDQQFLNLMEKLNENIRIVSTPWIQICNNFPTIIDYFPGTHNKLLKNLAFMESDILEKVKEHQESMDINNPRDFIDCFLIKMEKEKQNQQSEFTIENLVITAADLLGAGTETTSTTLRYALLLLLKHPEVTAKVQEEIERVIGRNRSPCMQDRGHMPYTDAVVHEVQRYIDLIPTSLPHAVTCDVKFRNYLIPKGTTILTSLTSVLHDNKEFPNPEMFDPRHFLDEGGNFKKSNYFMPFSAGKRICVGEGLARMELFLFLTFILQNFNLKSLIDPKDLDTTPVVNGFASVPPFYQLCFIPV

As for `CNc1cc(C)nc(Nc2ccc(OC)c(C3=CCNCCC3)c2)n1`, the inhibition – broadly, the relative decrease from the control value, in per cent – at 10 µM against CYP2D6 worked out at 3%; against CYP1A2 it was 0%; against CYP2C19 it was 9%. The CL in [1] was 62.9 mL/min/kg. Also, the remaining at 0.5 h in series [2] is 34%; in [7] it was 24%. The pIC50 (as a rule, −log10 of the IC50, conventionally taken in molar units) in series [3] is 8.37. Also, the result in series [4] was Active. In series [5], the highest concentration (Cmax) – broadly, the highest concentration seen after dosing – stood at 450 nM. Further, the AUC(0-inf) (as a rule, total exposure, with the tail of the curve extrapolated) in series [6] was determined as 0.79 µM·h.

`CNc1cc(C)nc(Nc2ccc(OC)c(OCCCN3CCCC3)c2)n1`: the inhibition at 10 µM against CYP2D6 amounted to 8%; against CYP1A2, 5%; against CYP2C19 it was 3%. In addition, the CL in [1] turned out to be 27.4 mL/min/kg. Moreover, the figures for the remaining at 0.5 h in [2] and in series [7] were 48% and 8%, respectively. For the same compound, the pIC50 in [3] was 7.77. Moreover, the outcome in series [4] was Active. This compound registered a Cmax in series [5] of 220 nM. In series [6], this compound showed a total exposure AUC(0-inf) of 1.71 µM·h.
